The text below walks through data of paper PMC4279406, “Simultaneous targeting of PI3Kδ and a PI3Kδ-dependent MEK1/2-Erk1/2 pathway for therapy in pediatric B-cell acute lymphoblastic leukemia” (Oncotarget, 2014).

Common to all, as to assay type: cell-based, human
The test system of one experiment is Raji cells. The experiment in a line: BrdU incorporation assay. To be noted: 1 μM, 24 h. The procedure:
(§1) Simultaneous targeting of PI3Kδ and a PI3Kδ-dependent MEK1/2-Erk1/2 pathway for therapy in pediatric B-cell acute lymphoblastic […]
Cells were treated as indicated conditions and then subjected to lysate to perform standard Western blot as described previously1. Briefly, whole-cell lysates and SDS-loading buffer diluted cell fractions were analyzed on SDS-PAGE gels. Transfer to nitrocellulose membranes, nonfat milk blocking, probing with indicated primary antibodies and the corresponding HRP-conjugated second antibodies.
Chemiluminescence were performed and captured using ImageQuant LAS 4000 (GE healthcare Life Sciences, Piscataway, NJ, USA) and band intensity was measure both with ImageQuant™ TL (GE Healthcare Life Sciences) 2.
Caspase 3/7 activity assay
Raji cells were treated with or without X-370 at 1 μM, 5μM and 10 μM for 24, 48 and 72 hours, thenwere measured using the Caspase-Glo® 3/7 Assay (Promega, US) following the protocol and relative caspase-3/7 activity was normalized to cell number which DMSO control was the base line.
5-bromo-2'-deoxyuridine (BrdU) incorporation Assay
5-bromo-2'-deoxyuridine (BrdU) incorporation was performed using FITC BrdU Flow Kit (BD Pharmingen, San Diego, CA) according to the provided protocol.
Figure S1;. CAL-101 docked to the crystal structure of PI3Kδ. […]
(Uptake of a labelled nucleoside into DNA is a usual measure of proliferation.)

Another experiment relates to Raji-R cells. Briefly: Signaling by Western blot in Raji-R cells. The following applies: 1 h. The procedure:
Raji and SU-DHL-6 cells were treated with X-370 for 1 h (left panel) or treated with 0.5 μM X-370 for indicated times (middle panel). Right panel, Raji cells were incubated in fresh medium following treatment with 0.5 μM X-370 for 1 h. Indicated proteins were detected. (B) Raji-R (the rituximab-resistant derivatives of Raji cells) cells were resistant to X-370. The activity of X-370 on the proliferation of Raji parent and Raji-R cells was determined by CCK-8 assay as described in the methods section. (C) X-370 blocked phosphorylation of Akt but not Erk1/2 in Raji-R cells. Raji-R cells were treated with X-370 for 1h and indicated proteins were detected. Data shown are representative from three independent experiments.
as §1
Cells were treated as indicated conditions and then subjected to lysate to perform standard Western blot as described previously1. Briefly, whole-cell lysates and SDS-loading buffer diluted cell fractions were analyzed on SDS-PAGE gels. […]
Raji cells were treated with or without X-370 at 1 μM, 5μM and 10 μM for 24, 48 and 72 hours, thenwere measured using the Caspase-Glo® 3/7 Assay (Promega, US) following the protocol and relative caspase-3/7 activity was normalized to cell number which DMSO control was the base line. […]

The test system of the next experiment is primary B-ALL cells. The experiment in a line: Phosphorylated Akt and Erk1/2 in primary B-ALL cells (Western blot). The following applies: 72 h. The procedure: Figure 6 X-370-sensitive human primary B-ALL cells contained PI3K-dependent Erk1/2 phosphorylation and combination of AZD6244 and X-370 enhanced inhibitory activity against resistant specimens (A) X-370-sensitive human primary B-ALL cells contained PI3K-dependent Erk1/2 phosphorylation. Primary B-ALL cells were treated with series diluted X-370 for 72 h. Phosphorylation of Akt and Erk1/2 were detected. (B). Combination of AZD6244 and X-370 enhanced inhibitory activity against resistant specimens. X-370 resistant primary B-ALL cells were treated with 1 μM X-370 alone or cocurently with MEK1/2 inhibitor AZD6244 (1 μM) for 72 h and cell viability were tested by CCK-8 assay. Cell viability of each treated group was compared with unpaired t-tests. *: P < 0.05. (C) X-370-resistant primary B-ALL cells were treated with X-370 in the presence of 1 μM AZD6244 or not for 72 h and phosphorylated Akt and Erk1/2 were then detected by Western blot.
Bone marrow was obtained from patients after provision of informed consent using guidelines approved by the Committee on the Use of Human Subjects in Research at Shanghai Jiaotong University or Shanghai Fudan University under a protocol approved by the Review Board. […] Cell viability and phosphorylated Akt and Erk1/2 were then detected.

On to `O=C(N1CCCC1)N1CCC(n2cnc3c(-n4c(C(F)F)nc5ccccc54)nc(N4CCOCC4)nc32)CC1` [X-370], for which the “DNA synthesis (BrdU incorporation)” value in the experiment with Raji cells is given as “readily inhibited”. Also, in the experiment on Raji-R cells, the “Akt and S6k1 phosphorylation” value is given as “significantly inhibited”; the “level of phosphorylated Erk1/2” value is reported as “negligible activity”. Further, in the experiment with primary B-ALL cells (resistant (IC50>1 μM) samples), the “phosphorylated Erk1/2” value is reported as “remained unaffected”. Also, the “phosphorylated Akt and Erk1/2” value in the experiment with primary B-ALL cells (sensitive (IC50<1 μM) specimens, < 1 μM) is “dramatically decreased”.
